In ChEMBL document CHEMBL4385613, “Discovery of Conformational Control Inhibitors Switching off the Activated c-KIT and Targeting a Broad Range of Clinically Relevant c-KIT Mutants” (J Med Chem, 2019):
pIC50: −log10 of the molar value.

How the values were obtained:
[1] = test system: Mus musculus; assay: Decrease in c-KIT phosphorylation in NOD-SCID mouse xenografted with human GIST430 cells harboring c-KIT exon 11 primary in-frame V560-L576 deletion mutant and exon 13 heterozygous secondary missense V654A mutant at 20 mg/kg, po measured after 8 hrs by immunoblotting analysis relative to control; assay type: functional
[2] = molecular target: Mast/stem cell growth factor receptor Kit (Homo sapiens, UniProt P10721); assay: Inhibition of ATP-activated recombinant human N-terminal 6x-His-tagged c-KIT (547 to 935 residues)/(694 to 753 residues deletion) expressed in baculovirus infected Sf9 insect cells assessed as decrease in poly (Glu,Tyr) 4:1 phosphorylation incubated for 30 mins followed by ATP addition and measured after 30 mins by Kinase Glo based luminescence assay
[3] = test system: Mast/stem cell growth factor receptor Kit (Homo sapiens), P10721 [V560G]; assay: Inhibition of human c-KIT JM domain exon 11 V560G single mutant at 100 nM using poly (Glu,Tyr) 4:1 as substrate in presence of 33P-gamma-ATP by hotspot kinase assay relative to control
Mast/stem cell growth factor receptor Kit (Homo sapiens), P10721 [V560G], sequence (P10721 whole entry V560G, the tested form may be a part): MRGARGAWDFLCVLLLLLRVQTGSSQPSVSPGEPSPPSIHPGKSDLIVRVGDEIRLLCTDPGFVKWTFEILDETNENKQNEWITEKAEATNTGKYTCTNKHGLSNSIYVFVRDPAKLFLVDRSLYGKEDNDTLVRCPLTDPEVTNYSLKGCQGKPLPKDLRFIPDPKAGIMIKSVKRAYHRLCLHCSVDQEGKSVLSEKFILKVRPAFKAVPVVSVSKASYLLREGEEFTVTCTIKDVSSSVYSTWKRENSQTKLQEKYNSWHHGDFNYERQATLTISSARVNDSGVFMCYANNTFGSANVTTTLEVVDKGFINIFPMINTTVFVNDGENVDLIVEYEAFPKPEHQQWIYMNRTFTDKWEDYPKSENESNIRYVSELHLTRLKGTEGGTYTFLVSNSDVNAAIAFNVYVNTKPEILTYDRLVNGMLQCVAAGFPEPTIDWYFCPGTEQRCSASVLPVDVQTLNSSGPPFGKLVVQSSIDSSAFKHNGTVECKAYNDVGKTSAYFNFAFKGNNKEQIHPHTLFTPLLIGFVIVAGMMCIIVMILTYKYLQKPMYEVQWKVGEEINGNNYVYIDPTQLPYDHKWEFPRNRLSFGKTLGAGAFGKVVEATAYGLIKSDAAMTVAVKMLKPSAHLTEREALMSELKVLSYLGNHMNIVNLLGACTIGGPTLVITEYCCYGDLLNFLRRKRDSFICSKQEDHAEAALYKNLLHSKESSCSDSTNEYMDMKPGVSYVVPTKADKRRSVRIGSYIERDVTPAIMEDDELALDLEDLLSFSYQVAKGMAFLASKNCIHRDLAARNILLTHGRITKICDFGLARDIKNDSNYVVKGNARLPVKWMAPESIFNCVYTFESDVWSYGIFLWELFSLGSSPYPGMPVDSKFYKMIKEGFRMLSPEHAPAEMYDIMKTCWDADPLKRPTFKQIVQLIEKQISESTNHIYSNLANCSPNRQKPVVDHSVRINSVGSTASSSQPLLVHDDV

[4] = test system: Mast/stem cell growth factor receptor Kit (Homo sapiens), P10721 [K642E]; assay: Inhibition of human c-KIT ATP binding domain exon 13 K642E single mutant at 10 nM using poly (Glu,Tyr) 4:1 as substrate in presence of 33P-gamma-ATP by hotspot kinase assay relative to control
Mast/stem cell growth factor receptor Kit (Homo sapiens), P10721 [K642E], sequence (P10721 whole entry K642E, the tested form may be a part): as the sequence (P10721 whole entry V560G, the tested form may be a part) above, with G560V, K642E counted along it

[5] = molecular target: Mast/stem cell growth factor receptor Kit (Homo sapiens, UniProt P10721, D816H); assay: Inhibition of human c-KIT A loop exon 17 D816H single mutant using poly (Glu,Tyr) 4:1 as substrate in presence of 33P-gamma-ATP by hotspot kinase assay
Mast/stem cell growth factor receptor Kit (Homo sapiens, UniProt P10721, D816H), sequence (P10721 26-976 D816H limits assumed): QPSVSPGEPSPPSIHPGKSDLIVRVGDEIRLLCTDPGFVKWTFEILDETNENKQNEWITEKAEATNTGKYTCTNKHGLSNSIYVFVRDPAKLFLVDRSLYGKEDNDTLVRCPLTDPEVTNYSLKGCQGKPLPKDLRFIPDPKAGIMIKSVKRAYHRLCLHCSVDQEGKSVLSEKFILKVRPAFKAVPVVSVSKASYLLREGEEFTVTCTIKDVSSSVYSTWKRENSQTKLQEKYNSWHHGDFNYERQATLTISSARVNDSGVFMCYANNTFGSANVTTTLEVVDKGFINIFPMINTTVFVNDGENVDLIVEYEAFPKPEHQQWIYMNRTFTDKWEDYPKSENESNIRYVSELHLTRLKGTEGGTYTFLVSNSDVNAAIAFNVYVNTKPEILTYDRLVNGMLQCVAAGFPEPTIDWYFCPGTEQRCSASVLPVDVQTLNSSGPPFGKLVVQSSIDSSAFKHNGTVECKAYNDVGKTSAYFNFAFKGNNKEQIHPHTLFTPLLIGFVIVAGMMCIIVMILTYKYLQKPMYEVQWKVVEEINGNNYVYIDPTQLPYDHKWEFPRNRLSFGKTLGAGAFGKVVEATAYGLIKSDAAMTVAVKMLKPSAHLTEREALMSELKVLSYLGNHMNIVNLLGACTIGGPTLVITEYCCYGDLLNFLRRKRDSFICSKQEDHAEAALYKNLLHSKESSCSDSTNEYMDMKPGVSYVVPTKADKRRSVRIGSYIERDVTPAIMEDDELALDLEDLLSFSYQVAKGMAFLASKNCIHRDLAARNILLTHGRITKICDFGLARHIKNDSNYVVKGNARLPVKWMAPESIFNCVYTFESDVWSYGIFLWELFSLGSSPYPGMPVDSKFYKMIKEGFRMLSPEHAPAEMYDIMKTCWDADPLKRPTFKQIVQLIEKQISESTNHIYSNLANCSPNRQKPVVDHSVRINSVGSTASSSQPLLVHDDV

[6] = test system: GISTT1; assay: Antiproliferative activity against human GISTT1 cells harboring heterozygous V560-Y578 del mutation assessed as reduction in cell viability by methylene blue staining based assay; assay type: functional
[7] = test system: GIST430; assay: Antiproliferative activity against human GIST430 cells harboring c-KIT exon 11 primary in-frame V560-L576 deletion mutant and exon 13 heterozygous secondary missense V654A mutant assessed as reduction in cell viability by MTS assay; assay type: functional
[8] = test system: GIST48; assay: Antiproliferative activity against human GIST48 cells harboring c-KIT exon 11 homozygous primary missense V560D mutant and exon 17 heterozygous secondary D820A mutant assessed as reduction in cell viability by methylene blue staining based assay; assay type: functional
[9] = Antiproliferative activity against human GIST48B cells assessed as reduction in cell viability by methylene blue staining based assay; assay type: functional
[10] = test system: PC-3; assay: Antiproliferative activity against human PC3 assessed as reduction in cell viability after 72 hrs by MTS assay; assay type: functional; conditions: PC-3, 72 h
[11] = Plasma clearance in ICR mouse at 2 mg/kg, iv administered as single dose measured up to 24 hrs by LC-MS/MS analysis; assay type: ADME, organism-based
[12] = test system: Mus musculus; assay: Decrease in c-KIT phosphorylation in po dosed NOD-SCID mouse xenografted with human GIST430 cells harboring c-KIT exon 11 primary in-frame V560-L576 deletion mutant and exon 13 heterozygous secondary missense V654A mutant measured after 8 hrs by immunoblotting method; assay type: functional, organism-based
[13] = test system: Mast/stem cell growth factor receptor Kit (Homo sapiens), P10721 [D816H]; conditions: at 10 nM
Mast/stem cell growth factor receptor Kit (Homo sapiens), P10721 [D816H], sequence (P10721 whole entry D816H): as the sequence (P10721 whole entry V560G, the tested form may be a part) above, with G560V, D816H counted along it
Description: Inhibition of human c-KIT A loop exon 17 D816H single mutant at 10 nM using poly (Glu,Tyr) 4:1 as substrate in presence of 33P-gamma-ATP by hotspot kinase assay relative to control

[14] = test system: Mast/stem cell growth factor receptor Kit (Homo sapiens), P10721 [D820E]; conditions: at 100 nM
Mast/stem cell growth factor receptor Kit (Homo sapiens), P10721 [D820E], sequence (P10721 whole entry D820E): as the sequence (P10721 whole entry V560G, the tested form may be a part) above, with G560V, D820E counted along it
Description: Inhibition of human c-KIT A loop exon 17 D820E single mutant at 100 nM using poly (Glu,Tyr) 4:1 as substrate in presence of 33P-gamma-ATP by hotspot kinase assay relative to control

[15] = test system: Mast/stem cell growth factor receptor Kit (Homo sapiens), P10721 [D820Y]; conditions: at 10 nM
Mast/stem cell growth factor receptor Kit (Homo sapiens), P10721 [D820Y], sequence (P10721 whole entry D820Y): as the sequence (P10721 whole entry V560G, the tested form may be a part) above, with G560V, D820Y counted along it
Description: Inhibition of human c-KIT A loop exon 17 D820Y single mutant at 10 nM using poly (Glu,Tyr) 4:1 as substrate in presence of 33P-gamma-ATP by hotspot kinase assay relative to control

[16] = test system: Mast/stem cell growth factor receptor Kit (Homo sapiens), P10721 [Y823D]; conditions: at 10 nM
Mast/stem cell growth factor receptor Kit (Homo sapiens), P10721 [Y823D], sequence (P10721 whole entry Y823D): as the sequence (P10721 whole entry V560G, the tested form may be a part) above, with G560V, Y823D counted along it
Description: Inhibition of human c-KIT A loop exon 17 Y823D single mutant at 10 nM using poly (Glu,Tyr) 4:1 as substrate in presence of 33P-gamma-ATP by hotspot kinase assay relative to control

`CCc1cc(NC(=O)Nc2ccc(-c3cnc(Nc4cc(N5CCN(CC)CC5)ncn4)s3)cc2)no1` showed an inhibition in vivo at 20 mg/kg [1] of 85%, a pIC50 [2] of 7.04 and an inhibition [3] of 99%. The inhibition [4] was 82%, the pIC50 [5] was 9.17 and the GI50 [6] was 2.2 nM. The GI50 [7] was 1 nM, the GI50 [8] was 2 nM and the GI50 [9] was > 100 nM. For the same compound, the GI50 [10] was > 20000 nM, the clearance [11] was 20.2 mL/min/kg and the Activity [12] was “Dose-dependent effect”. For the same compound, the inhibition [13] was 73%, the inhibition [14] was 100% and the inhibition [15] was 99%. The inhibition [16] was 97%.
